From ChEMBL document CHEMBL1148883, “Hit-to-lead studies on benzimidazole inhibitors of ITK: discovery of a novel class of kinase inhibitors” (Bioorg Med Chem Lett, 2007)
One block for each compound: values may come before it.

Tests used:
[1] = target: T1, Tyrosine-protein kinase ITK/TSK (Homo sapiens, UniProt Q08881); assay: Inhibition of human ITK by DELFIA assay
T1 sequence (Q08881 whole entry): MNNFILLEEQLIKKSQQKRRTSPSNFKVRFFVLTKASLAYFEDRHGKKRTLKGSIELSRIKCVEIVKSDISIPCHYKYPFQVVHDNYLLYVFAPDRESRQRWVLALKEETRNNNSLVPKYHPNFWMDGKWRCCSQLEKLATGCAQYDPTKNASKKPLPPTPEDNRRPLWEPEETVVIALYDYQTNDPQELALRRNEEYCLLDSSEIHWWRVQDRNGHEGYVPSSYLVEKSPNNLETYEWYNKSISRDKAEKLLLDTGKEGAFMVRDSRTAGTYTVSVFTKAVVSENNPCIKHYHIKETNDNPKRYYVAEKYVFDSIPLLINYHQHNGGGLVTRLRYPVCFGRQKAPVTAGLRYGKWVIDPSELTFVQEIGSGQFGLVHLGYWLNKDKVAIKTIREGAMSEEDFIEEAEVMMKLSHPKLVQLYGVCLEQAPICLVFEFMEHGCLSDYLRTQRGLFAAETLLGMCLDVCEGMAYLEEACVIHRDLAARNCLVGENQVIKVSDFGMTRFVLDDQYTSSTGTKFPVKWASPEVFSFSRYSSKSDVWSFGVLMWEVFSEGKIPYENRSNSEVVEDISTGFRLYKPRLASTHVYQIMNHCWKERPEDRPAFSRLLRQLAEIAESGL

[2] = target: Platelet-derived growth factor receptor (Homo sapiens) (UniProt P09619+P16234); assay: Inhibition of PDGFR at 10 uM; assay type: protein-complex assay
[3] = Inhibition of IRK; set-up: species or system Homo sapiens
[4] = target: Tyrosine-protein kinase TXK (Homo sapiens, UniProt P42681); assay: Inhibition of TXK
[5] = target: Vascular endothelial growth factor receptor 1 (Homo sapiens, UniProt P17948); assay: Inhibition of VEGFR1
[6] = target: Tyrosine-protein kinase BTK (Homo sapiens, UniProt Q06187); assay: Inhibition of BTK
[7] = target: T1, Tyrosine-protein kinase ITK/TSK; assay: Effect on human ITK in DT40 cells assessed as […] of calcium influx by FLIPR assay; assay type: cell-based
[8] = target: Tyrosine-protein kinase Lyn (Homo sapiens, UniProt P07948); assay: Inhibition of LYN
[9] = target: Serine/threonine-protein kinase Chk1 (Homo sapiens) (UniProt O14757); assay: Inhibition of CHK1 at 10 uM
[10] = target: Cytoplasmic tyrosine-protein kinase BMX (Homo sapiens, UniProt P51813); assay: Inhibition of BMX
[11] = target: MAP kinase-activated protein kinase 2 (Homo sapiens) (UniProt P49137); assay: Inhibition of MAPKAPK2 at 10 uM
[12] = target: Ephrin type-A receptor 2 (Homo sapiens, UniProt P29317); assay: Inhibition of ECK
[13] = target: Tyrosine-protein kinase SYK (Homo sapiens) (UniProt P43405); assay: Inhibition of SYK at 10 uM
[14] = target: T1, Tyrosine-protein kinase ITK/TSK; assay: Inhibition of human ITK in presence of 100 uM ATP
[15] = target: T1, Tyrosine-protein kinase ITK/TSK; assay: Inhibition of human ITK in presence of 20 uM ATP
[16] = target: Dual specificity mitogen-activated protein kinase kinase 1 (Homo sapiens) (UniProt Q02750); assay: Inhibition of MKK1 at 10 uM
[17] = target: Epidermal growth factor receptor (Homo sapiens, UniProt P00533); assay: Inhibition of EGFR
[18] = target: Tyrosine-protein kinase Tec (Homo sapiens, UniProt P42680); assay: Inhibition of TEC
[19] = target: Hepatocyte growth factor receptor (Homo sapiens, UniProt P08581); assay: Inhibition of HGFR
[20] = target: Protein kinase C beta type (Homo sapiens) (UniProt P05771); assay: Inhibition of PKCbeta at 10 uM
[21] = target: T1, Tyrosine-protein kinase ITK/TSK; assay: Inhibition of human ITK in presence of 3 uM ATP
[22] = target: Fibroblast growth factor receptor 3 (Homo sapiens, UniProt P22607); assay: Inhibition of FGFR3
[23] = target: T1, Tyrosine-protein kinase ITK/TSK; assay: Inhibition of human ITK in presence of 500 uM ATP
[24] = target: Tyrosine-protein kinase JAK3 (Homo sapiens) (UniProt P52333); assay: Inhibition of JAK3 at 10 uM
[25] = target: Cyclin-dependent kinase 2 (Homo sapiens) (UniProt P24941); assay: Inhibition of CDK2 at 10 uM
[26] = target: Cyclin-dependent kinase 5 (Homo sapiens) (UniProt Q00535); assay: Inhibition of CDK5 at 10 uM
[27] = target: Rho-associated protein kinase 2 (Homo sapiens) (UniProt O75116); assay: Inhibition of ROCK2 at 10 uM

Tyrosine-protein kinase JAK3 (Homo sapiens), sequence (P52333 whole entry): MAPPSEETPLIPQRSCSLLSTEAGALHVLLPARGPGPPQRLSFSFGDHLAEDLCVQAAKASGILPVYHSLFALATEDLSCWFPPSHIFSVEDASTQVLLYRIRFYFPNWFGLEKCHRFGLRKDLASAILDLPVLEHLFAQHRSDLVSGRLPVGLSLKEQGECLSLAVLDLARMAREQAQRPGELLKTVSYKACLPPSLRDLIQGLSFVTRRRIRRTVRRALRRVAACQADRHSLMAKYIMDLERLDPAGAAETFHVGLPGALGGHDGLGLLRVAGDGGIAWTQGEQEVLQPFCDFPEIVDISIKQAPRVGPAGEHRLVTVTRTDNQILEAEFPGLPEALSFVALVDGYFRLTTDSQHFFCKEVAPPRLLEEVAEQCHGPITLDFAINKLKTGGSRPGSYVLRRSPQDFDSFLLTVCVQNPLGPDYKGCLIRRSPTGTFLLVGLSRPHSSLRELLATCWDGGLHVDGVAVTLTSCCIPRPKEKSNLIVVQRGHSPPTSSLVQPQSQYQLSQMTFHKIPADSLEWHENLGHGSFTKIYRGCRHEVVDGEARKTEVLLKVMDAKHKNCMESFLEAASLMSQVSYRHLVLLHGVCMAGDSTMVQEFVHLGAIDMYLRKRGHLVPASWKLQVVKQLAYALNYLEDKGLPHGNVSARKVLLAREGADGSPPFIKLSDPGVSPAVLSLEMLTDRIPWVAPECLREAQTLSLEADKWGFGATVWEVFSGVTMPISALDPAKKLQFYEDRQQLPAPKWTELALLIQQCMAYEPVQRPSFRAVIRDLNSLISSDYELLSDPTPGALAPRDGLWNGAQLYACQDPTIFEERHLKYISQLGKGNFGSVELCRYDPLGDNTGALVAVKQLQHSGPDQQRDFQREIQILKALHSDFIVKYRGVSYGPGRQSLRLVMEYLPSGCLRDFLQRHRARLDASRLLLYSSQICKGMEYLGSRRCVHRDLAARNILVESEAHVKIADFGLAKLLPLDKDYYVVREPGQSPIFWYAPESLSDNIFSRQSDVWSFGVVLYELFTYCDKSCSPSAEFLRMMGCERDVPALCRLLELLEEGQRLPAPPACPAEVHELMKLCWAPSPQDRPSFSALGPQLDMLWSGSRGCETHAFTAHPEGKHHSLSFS
Serine/threonine-protein kinase Chk1 (Homo sapiens), sequence (O14757 whole entry): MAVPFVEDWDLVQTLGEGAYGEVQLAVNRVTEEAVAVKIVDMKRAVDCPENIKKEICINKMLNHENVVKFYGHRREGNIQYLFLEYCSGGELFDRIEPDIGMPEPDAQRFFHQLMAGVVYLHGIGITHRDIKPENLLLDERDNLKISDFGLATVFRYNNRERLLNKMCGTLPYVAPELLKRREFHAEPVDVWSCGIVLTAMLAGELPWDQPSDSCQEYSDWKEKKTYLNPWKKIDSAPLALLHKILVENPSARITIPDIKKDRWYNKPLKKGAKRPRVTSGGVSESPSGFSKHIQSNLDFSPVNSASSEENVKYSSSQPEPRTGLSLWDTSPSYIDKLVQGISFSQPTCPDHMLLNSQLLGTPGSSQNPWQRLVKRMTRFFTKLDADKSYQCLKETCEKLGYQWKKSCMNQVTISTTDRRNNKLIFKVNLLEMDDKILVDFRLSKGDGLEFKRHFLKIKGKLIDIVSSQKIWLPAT
MAP kinase-activated protein kinase 2 (Homo sapiens), sequence (P49137 whole entry, looked up): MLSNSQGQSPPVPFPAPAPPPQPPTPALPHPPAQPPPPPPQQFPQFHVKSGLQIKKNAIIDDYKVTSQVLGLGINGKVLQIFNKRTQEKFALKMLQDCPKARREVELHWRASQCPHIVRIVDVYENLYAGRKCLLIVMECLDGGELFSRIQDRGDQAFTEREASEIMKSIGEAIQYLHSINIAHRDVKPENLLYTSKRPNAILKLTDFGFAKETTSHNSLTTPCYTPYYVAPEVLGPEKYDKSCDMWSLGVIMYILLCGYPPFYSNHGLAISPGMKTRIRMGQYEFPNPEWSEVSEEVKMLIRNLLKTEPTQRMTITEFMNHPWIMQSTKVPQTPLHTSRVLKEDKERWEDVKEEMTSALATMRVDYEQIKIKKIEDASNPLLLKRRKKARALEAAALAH
Tyrosine-protein kinase TXK, sequence (P42681 whole entry): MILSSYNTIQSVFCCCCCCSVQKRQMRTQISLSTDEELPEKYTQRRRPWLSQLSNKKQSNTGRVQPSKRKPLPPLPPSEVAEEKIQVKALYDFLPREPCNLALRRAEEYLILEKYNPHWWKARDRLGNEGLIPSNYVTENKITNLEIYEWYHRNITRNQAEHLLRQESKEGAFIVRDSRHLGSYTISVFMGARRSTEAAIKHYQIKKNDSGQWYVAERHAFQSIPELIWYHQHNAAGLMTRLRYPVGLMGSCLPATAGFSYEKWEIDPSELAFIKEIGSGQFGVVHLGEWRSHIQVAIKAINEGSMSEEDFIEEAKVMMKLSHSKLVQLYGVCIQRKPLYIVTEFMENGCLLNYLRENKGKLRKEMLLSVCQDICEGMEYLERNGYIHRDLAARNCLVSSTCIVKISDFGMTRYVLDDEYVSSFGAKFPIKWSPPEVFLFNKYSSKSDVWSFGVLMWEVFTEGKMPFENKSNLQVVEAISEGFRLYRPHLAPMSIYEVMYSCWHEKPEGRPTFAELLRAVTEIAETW
Tyrosine-protein kinase Lyn, sequence (P07948 whole entry): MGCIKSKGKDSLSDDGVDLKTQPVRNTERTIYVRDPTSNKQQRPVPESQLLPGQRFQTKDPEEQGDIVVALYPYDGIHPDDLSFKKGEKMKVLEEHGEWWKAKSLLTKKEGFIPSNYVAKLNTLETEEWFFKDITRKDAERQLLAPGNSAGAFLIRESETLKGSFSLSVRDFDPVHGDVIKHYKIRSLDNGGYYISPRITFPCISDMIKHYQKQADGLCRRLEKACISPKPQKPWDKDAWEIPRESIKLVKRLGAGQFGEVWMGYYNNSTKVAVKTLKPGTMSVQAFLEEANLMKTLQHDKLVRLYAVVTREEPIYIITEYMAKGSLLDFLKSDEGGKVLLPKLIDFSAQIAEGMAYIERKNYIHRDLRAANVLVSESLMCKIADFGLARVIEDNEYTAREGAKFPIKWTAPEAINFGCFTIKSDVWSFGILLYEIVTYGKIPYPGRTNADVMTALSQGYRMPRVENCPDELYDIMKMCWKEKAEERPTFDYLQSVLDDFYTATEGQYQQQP
Protein kinase C beta type (Homo sapiens), sequence (P05771 2-671 limits assumed): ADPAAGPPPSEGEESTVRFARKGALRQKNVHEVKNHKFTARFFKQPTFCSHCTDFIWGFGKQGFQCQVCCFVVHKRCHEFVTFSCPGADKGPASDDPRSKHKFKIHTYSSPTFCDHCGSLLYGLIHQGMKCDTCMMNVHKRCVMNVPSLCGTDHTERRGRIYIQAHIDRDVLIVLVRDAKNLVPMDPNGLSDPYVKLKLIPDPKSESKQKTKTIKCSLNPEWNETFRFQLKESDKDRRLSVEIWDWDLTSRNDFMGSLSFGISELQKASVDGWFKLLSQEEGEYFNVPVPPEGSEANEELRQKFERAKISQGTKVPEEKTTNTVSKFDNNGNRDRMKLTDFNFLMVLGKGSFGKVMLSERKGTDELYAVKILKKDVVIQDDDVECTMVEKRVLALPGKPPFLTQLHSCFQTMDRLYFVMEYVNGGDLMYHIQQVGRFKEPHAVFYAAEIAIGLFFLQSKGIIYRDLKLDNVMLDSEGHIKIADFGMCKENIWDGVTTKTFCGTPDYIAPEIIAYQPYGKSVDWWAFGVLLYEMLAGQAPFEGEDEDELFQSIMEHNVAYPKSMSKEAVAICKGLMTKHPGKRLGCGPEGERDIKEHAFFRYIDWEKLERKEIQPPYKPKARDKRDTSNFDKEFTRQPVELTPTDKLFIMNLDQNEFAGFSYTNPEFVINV
Tyrosine-protein kinase BTK, sequence (Q06187 whole entry): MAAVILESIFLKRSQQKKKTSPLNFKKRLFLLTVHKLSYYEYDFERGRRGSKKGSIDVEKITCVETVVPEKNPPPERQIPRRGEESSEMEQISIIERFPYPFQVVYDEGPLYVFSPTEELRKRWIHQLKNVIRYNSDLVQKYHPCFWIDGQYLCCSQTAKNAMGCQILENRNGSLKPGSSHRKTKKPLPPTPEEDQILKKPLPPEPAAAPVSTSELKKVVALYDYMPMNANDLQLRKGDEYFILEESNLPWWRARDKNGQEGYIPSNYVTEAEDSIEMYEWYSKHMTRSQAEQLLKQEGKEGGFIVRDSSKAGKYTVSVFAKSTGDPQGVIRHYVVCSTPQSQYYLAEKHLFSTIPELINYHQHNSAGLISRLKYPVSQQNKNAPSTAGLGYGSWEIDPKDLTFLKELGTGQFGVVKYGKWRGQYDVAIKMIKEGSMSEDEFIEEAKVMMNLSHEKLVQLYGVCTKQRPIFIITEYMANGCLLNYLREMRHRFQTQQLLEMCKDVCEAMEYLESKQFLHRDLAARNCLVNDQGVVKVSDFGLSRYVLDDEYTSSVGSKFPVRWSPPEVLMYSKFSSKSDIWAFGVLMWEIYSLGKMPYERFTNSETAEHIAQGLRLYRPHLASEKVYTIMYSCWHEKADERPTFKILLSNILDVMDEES
Cyclin-dependent kinase 5 (Homo sapiens), sequence (Q00535 whole entry, looked up): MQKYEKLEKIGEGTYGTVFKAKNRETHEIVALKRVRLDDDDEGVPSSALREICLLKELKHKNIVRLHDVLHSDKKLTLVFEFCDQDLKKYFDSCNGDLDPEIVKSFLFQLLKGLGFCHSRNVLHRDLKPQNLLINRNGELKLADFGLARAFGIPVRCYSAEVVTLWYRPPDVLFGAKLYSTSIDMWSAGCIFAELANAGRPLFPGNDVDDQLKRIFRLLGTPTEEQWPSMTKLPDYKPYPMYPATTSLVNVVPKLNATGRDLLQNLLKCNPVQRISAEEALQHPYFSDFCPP

IC50 [1]: > 20000 nM
Structure (SMILES): NC(=O)CCn1c(NC(=O)c2ccccc2)nc2cc(C(=O)NC3CCCCC3)ccc21

IC50 [1]: > 20000 nM
Structure (SMILES): NC(=O)CCn1c(NC(=O)c2ccccc2)nc2cc(C(=O)N(C3CCCCC3)C3CCCCC3)ccc21

Second part, the compound before the results:

Structure (SMILES): NCCCn1c(NC(=O)c2cccs2)nc2cc(C(=O)OC3CCCCC3)ccc21
IC50 [1]: > 20000 nM

Structure (SMILES): CN(C(=O)C1CCCCC1)c1ccc2c(c1)nc(NC(=O)c1cccs1)n2CCCN
inhibition [2]: 10%
IC50 [3]: 200 nM
IC50 [4]: 1400 nM
IC50 [5]: > 10000 nM
IC50 [6]: > 22000 nM
IC50 [7]: 2400 nM
IC50 [8]: > 10000 nM
IC50 [1]: 25 nM
inhibition [9]: 8%
IC50 [10]: > 22000 nM
inhibition [11]: 1%
IC50 [12]: > 10000 nM
inhibition [13]: 6%
IC50 [14]: 240 nM
IC50 [15]: 80 nM
inhibition [16]: -2%
IC50 [17]: > 6000 nM
IC50 [18]: 22000 nM
IC50 [19]: > 10000 nM
inhibition [20]: 21%
IC50 [21]: 25 nM
IC50 [22]: > 6000 nM
IC50 [23]: 1100 nM
inhibition [24]: -7%
inhibition [25]: 7%
inhibition [26]: -4%
inhibition [27]: -1%

Structure (SMILES): NC(=O)CCn1c(NC(=O)c2ccsc2)nc2cc(C(=O)NC3CCCCC3)ccc21
IC50 [1]: > 20000 nM
